Measurements: article PMC6013247, “Preclinical characterization of INCB053914, a novel pan-PIM kinase inhibitor, alone and in combination with anticancer agents, in models of hematologic malignancies” (PLoS ONE, 2018)

Assays:
[1] = target: FAK (Homo sapiens, UniProt Q05397); test: Kinase selectivity panel; format: biochemical; details: [ATP] = 1 mM
[2] = target: Per-Arnt-Sim (PAS) kinase (Homo sapiens, UniProt Q96RG2); test: PAS kinase activity, further evaluation; format: biochemical
[3] = target: EPHB4 (Homo sapiens, UniProt P54760); test: Kinase selectivity panel; format: biochemical; details: [ATP] = 1 mM
Sequence of EPHB4 (P54760 16-987): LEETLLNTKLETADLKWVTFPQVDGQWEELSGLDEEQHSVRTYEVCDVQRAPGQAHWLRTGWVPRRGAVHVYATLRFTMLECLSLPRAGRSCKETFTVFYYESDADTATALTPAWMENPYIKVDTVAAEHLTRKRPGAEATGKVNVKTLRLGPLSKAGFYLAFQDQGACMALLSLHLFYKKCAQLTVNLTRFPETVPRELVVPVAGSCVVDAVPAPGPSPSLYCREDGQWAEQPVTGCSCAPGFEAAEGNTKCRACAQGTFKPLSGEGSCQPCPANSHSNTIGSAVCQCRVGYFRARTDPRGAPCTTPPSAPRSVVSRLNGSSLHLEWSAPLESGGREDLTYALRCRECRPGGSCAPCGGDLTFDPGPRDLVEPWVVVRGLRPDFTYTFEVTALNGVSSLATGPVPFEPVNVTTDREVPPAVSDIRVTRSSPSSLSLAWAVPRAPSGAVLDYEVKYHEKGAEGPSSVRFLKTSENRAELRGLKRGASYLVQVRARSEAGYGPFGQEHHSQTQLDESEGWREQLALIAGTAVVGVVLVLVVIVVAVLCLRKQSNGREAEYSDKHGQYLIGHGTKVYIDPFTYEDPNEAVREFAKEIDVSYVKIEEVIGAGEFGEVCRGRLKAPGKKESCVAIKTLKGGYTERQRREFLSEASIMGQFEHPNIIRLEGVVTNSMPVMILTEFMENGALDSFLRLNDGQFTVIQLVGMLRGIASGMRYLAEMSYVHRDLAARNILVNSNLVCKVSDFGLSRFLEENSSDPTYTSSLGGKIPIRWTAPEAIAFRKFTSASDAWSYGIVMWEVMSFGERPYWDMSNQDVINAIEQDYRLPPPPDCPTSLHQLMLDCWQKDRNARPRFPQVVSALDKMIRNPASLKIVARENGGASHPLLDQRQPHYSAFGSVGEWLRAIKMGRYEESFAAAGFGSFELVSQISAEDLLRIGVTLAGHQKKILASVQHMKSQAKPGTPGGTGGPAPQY

[4] = test system: HL-60; test: Cell proliferation assay ([3H]-thymidine); format: cell-based; details: Homo sapiens; HL-60 (AML); read-out: Mean (± SD) GI50
Method: (§1) The antiproliferative effects of INCB053914 on hematologic tumor cells were investigated using assays described in the Supporting Information (S2 File).
(§2) Cell proliferation assays. […] After 3 to 4 days, [^3H]-thymidine (1 μCi/well) (PerkinElmer) in PBS (10 μl) was added to the cell culture for an additional 12 hours. The incorporated radioactivity was separated by filtration with water through GF/B filters (Packard Bioscience, Meriden, Connecticut) and measured by liquid scintillation counting with a TopCount (Packard Bioscience).

[5] = test system: OCI-LY-3; test: Cell proliferation assay ([3H]-thymidine); format: cell-based; details: Homo sapiens, OCI-Ly3; OCI-LY-3 (DLBCL); read-out: Mean (± SD) GI50
Method: as §1, §2

[6] = test system: HBL-1; test: Cell proliferation assay ([3H]-thymidine); format: cell-based; details: HBL1; HBL-1 (DLBCL); read-out: Mean (± SD) GI50
Method: as §1, §2

[7] = test system: KMS-12-BM; test: Cell proliferation assay ([3H]-thymidine); format: cell-based; details: Homo sapiens; KMS-12-BM (MM); read-out: Mean (± SD) GI50
Method: as §1, §2

[8] = test system: KMS-12-PE; test: Cell proliferation assay ([3H]-thymidine); format: cell-based; details: KMS-12-PE (MM)
Method: as §1, §2

[9] = test system: GDM-1; test: Cell proliferation assay ([3H]-thymidine); format: cell-based; details: Homo sapiens; GDM-1 (AML); read-out: Mean (± SD) GI50
Method: as §1, §2

[10] = test system: F36P; test: Cell proliferation assay ([3H]-thymidine); format: cell-based; details: F36P (AML)
Method: as §1, §2

[11] = test system: Jurkat; test: Cell proliferation assay ([3H]-thymidine); format: cell-based; details: Jurkat (T-ALL)
Method: as §1, §2

[12] = test system: OCI-LY-19; test: Cell proliferation assay ([3H]-thymidine); format: cell-based; details: OCI-LY-19 (DLBCL)
Method: as §1, §2

[13] = test system: KG-1a; test: Cell proliferation assay ([3H]-thymidine); format: cell-based; details: KG-1a (AML)
Method: as §1, §2

[14] = test system: KMS-28-BM; test: Cell proliferation assay ([3H]-thymidine); format: cell-based; details: KMS-28-BM (MM)
Method: as §1, §2

[15] = test system: Jeko-1; test: Cell proliferation assay ([3H]-thymidine); format: cell-based; details: Jeko-1 (MCL)
Method: as §1, §2

[16] = test system: KMS-34; test: Cell proliferation assay ([3H]-thymidine); format: cell-based; details: KMS-34 (MM)
Method: as §1, §2

[17] = test system: SUDHL-1; test: Cell proliferation assay ([3H]-thymidine); format: cell-based; details: Homo sapiens, SU-DHL-1; SUDHL-1 (DLBCL); read-out: Mean (± SD) GI50
Method: as §1, §2

[18] = test system: U2932; test: Cell proliferation assay ([3H]-thymidine); format: cell-based; details: U2932 (DLBCL)
Method: as §1, §2

[19] = test system: Toledo; test: Cell proliferation assay ([3H]-thymidine); format: cell-based; details: Toledo (DLBCL)
Method: as §1, §2

[20] = test system: MOLP-2; test: Cell proliferation assay ([3H]-thymidine); format: cell-based; details: MOLP-2 (MM)
Method: as §1, §2

[21] = test system: Kasumi-1; test: Cell proliferation assay ([3H]-thymidine); format: cell-based; details: Kasumi-1 (AML)
Method: as §1, §2

[22] = test system: INA-6; test: Cell proliferation assay ([3H]-thymidine); format: cell-based; details: INA-6 (MM)
Method: as §1, §2

[23] = test system: Mino; test: Cell proliferation assay ([3H]-thymidine); format: cell-based; details: Homo sapiens; Mino (MCL); read-out: Mean (± SD) GI50
Method: as §1, §2

[24] = test system: KMS-11; test: Cell proliferation assay ([3H]-thymidine); format: cell-based; details: KMS-11 (MM)
Method: as §1, §2

[25] = test system: NOMO1; test: Cell proliferation assay ([3H]-thymidine); format: cell-based; details: NOMO1 (AML)
Method: as §1, §2

[26] = test system: Reh; test: Cell proliferation assay ([3H]-thymidine); format: cell-based; details: Reh (T-ALL)
Method: as §1, §2

[27] = test system: MM1.S; test: Cell proliferation assay ([3H]-thymidine); format: cell-based; details: MM1.S (MM)
Method: as §1, §2

[28] = test system: THP-1; test: Cell proliferation assay ([3H]-thymidine); format: cell-based; details: THP-1 (AML)
Method: as §1, §2

[29] = test system: RPMI8226; test: Cell proliferation assay ([3H]-thymidine); format: cell-based; details: RPMI8226 (MM)
Method: as §1, §2

[30] = test system: SKM-1; test: Cell proliferation assay ([3H]-thymidine); format: cell-based; details: Homo sapiens; SKM-1 (AML); read-out: Mean (± SD) GI50
Method: as §1, §2

[31] = Homo sapiens, read-out: Mean (± SD) GI50

Sequence of Per-Arnt-Sim (PAS) kinase (Q96RG2 whole entry): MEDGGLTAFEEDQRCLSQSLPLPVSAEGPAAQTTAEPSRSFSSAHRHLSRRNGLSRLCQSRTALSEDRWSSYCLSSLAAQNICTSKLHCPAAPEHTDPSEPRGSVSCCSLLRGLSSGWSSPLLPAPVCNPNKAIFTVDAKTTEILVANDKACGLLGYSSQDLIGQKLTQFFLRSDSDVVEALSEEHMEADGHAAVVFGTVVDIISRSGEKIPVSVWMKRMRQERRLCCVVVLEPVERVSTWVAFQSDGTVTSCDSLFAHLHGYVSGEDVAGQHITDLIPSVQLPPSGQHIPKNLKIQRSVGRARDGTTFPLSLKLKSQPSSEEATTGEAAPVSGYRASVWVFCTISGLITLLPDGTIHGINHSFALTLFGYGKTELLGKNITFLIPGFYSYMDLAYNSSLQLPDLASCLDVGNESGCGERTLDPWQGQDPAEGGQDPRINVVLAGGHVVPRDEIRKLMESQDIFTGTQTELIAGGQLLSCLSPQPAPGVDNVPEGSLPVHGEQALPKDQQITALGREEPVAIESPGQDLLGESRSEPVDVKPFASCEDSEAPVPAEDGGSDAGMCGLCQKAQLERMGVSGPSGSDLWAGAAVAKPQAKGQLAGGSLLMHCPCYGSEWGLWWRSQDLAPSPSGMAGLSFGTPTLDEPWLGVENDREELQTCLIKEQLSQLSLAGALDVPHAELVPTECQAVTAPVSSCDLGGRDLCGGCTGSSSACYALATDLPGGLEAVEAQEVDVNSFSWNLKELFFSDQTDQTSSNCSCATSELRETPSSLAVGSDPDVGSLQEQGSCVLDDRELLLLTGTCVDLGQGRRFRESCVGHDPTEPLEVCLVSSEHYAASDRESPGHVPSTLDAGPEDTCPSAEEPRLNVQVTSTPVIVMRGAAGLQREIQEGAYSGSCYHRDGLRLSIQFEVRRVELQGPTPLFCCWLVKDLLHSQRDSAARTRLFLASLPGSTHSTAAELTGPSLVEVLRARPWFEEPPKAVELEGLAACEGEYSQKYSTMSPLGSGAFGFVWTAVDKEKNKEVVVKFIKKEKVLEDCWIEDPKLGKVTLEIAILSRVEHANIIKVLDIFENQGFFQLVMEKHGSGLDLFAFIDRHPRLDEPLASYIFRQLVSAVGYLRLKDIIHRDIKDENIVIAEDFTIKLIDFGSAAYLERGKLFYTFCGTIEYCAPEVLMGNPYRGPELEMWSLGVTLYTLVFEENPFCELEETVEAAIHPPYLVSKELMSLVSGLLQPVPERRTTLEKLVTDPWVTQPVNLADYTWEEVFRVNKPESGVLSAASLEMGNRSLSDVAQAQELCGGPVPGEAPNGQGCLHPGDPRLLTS
Sequence of FAK (Q05397 whole entry): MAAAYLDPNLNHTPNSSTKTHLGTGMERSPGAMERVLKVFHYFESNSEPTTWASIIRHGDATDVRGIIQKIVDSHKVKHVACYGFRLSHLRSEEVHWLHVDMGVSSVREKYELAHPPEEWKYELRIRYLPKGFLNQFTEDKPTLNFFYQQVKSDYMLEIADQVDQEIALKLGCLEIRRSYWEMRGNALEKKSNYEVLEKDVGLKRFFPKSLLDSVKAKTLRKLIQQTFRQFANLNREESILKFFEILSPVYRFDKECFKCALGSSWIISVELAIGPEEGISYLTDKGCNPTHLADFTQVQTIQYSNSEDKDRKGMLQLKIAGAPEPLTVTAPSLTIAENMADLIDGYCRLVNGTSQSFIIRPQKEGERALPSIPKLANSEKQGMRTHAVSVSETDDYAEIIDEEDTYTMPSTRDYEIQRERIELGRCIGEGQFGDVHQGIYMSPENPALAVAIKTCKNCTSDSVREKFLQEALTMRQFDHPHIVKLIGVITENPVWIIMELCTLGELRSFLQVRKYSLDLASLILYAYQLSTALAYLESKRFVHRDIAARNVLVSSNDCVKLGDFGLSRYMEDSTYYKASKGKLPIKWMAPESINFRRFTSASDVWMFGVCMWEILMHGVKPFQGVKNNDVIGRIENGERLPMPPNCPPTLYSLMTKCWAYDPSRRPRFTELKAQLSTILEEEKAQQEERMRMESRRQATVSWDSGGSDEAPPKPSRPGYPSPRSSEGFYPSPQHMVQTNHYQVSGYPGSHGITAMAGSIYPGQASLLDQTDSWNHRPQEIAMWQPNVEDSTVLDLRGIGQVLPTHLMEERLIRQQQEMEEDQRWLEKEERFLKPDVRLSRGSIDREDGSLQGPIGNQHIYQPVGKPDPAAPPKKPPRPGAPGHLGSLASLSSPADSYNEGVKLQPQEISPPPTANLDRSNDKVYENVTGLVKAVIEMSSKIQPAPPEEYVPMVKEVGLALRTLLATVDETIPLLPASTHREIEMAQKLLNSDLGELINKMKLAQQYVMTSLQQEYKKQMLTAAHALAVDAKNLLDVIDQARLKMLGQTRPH

With `C[C@H]1CN(c2c(NC(=O)c3ccc(F)c(-c4c(F)cccc4F)n3)cnc3c2CC[C@H]3O)C[C@@H](N)[C@@H]1O.O=P(O)(O)O` [INCB053914, N-((R)-4-((3R,4R,5S)-3-amino-4-hydroxy-5-methylpiperidin-1-yl)-7-hydroxy-6,7-dihydro-5H-cyclopenta[b]pyridin-3-yl)-6-(2,6-difluorophenyl)-5-fluoropicolinamide phosphate] the IC50 [1] was > 20 µM, the “effect on PAS kinase activity relative to PIM2” value [2] was “approximately equipotent effects on PIM2 and PAS kinase activities” and the IC50 [3] was > 20 µM. For the same molecule, the GI50 [4] was > 3 µM, the GI50 [5] was > 3 µM and the GI50 [6] was > 3 µM. The GI50 [7] was 0.0342 ± 0.0199 µM, the GI50 [8, 31] was 0.0897 ± 0.0509 µM and the “Mean (SD) maximum inhibition” value [8] was 97.0 ± 4.7%. For the same molecule, the GI50 [9] was > 3 µM, the “Mean (SD) maximum inhibition” value [10] was 94.7 ± 2.5% and the GI50 ([10]; read-out: Mean (± SD) GI50) was 0.0761 ± 0.0367 µM. The GI50 [11, 31] was 0.931 ± 0.8 µM, the “Mean (SD) maximum inhibition” value [11] was 66.0 ± 7.0% and the GI50 ([12]; Homo sapiens, OCI-LY19, read-out: Mean (± SD) GI50) was 0.11 ± 0.0536 µM. The “Mean (SD) maximum inhibition” value [12] was 69.7 ± 5.1%, the GI50 [13, 31] was 0.0143 ± 0.0049 µM and the “Mean (SD) maximum inhibition” value [13] was 94.5 ± 1.5%. The “Mean (SD) maximum inhibition” value [14] was 86.0 ± 3.7%, the GI50 ([14]; read-out: Mean (± SD) GI50) was 0.0367 ± 0.0099 µM and the GI50 [15, 31] was 0.117 ± 0.0455 µM. The “Mean (SD) maximum inhibition” value [15] was 91.3 ± 2.9%, the “Mean (SD) maximum inhibition” value [16] was 98.8 ± 0.5% and the GI50 ([16]; read-out: Mean (± SD) GI50) was 0.0871 ± 0.028 µM. The GI50 [17] was > 3 µM, the GI50 [18, 31] was 0.0345 ± 0.0101 µM and the “Mean (SD) maximum inhibition” value [18] was 83.6 ± 8.0%. The GI50 [19, 31] was 0.0707 ± 0.0251 µM, the “Mean (SD) maximum inhibition” value [19] was 97.6 ± 1.5% and the “Mean (SD) maximum inhibition” value [20] was 95.4 ± 3.2%. For the same molecule, the GI50 ([20]; read-out: Mean (± SD) GI50) was 0.0238 ± 0.0101 µM, the GI50 [21, 31] was 0.206 ± 0.0763 µM and the “Mean (SD) maximum inhibition” value [21] was 76.7 ± 4.6%. For the same molecule, the “Mean (SD) maximum inhibition” value [22] was 99.0 ± 0.2%, the GI50 ([22]; read-out: Mean (± SD) GI50) was 0.0248 ± 0.0046 µM and the GI50 [23] was > 3 µM. The GI50 [24, 31] was 0.0818 ± 0.0081 µM, the “Mean (SD) maximum inhibition” value [24] was 93.0 ± 2.5% and the GI50 ([25]; Homo sapiens, NOMO-1, read-out: Mean (± SD) GI50) was 0.0359 ± 0.0093 µM. For the same molecule, the “Mean (SD) maximum inhibition” value [25] was 84.6 ± 4.0%, the GI50 [26, 31] was 0.0337 ± 0.0243 µM and the “Mean (SD) maximum inhibition” value [26] was 94.3 ± 5.7%. For the same molecule, the GI50 [27, 31] was 0.0554 ± 0.0381 µM, the “Mean (SD) maximum inhibition” value [27] was 88.3 ± 3.1% and the GI50 [28, 31] was 2.05 µM. The “Mean (SD) maximum inhibition” value [28] was 76.3 ± 22.3%, the GI50 ([29]; Homo sapiens, RPMI-8226, read-out: Mean (± SD) GI50) was 0.23 ± 0.132 µM and the “Mean (SD) maximum inhibition” value [29] was 96.8 ± 2.2%. For the same molecule, the GI50 [30] was > 3 µM.
